Measurements as given in patent publication US20120088668A1, “THINNING AGENT” (TAMINCO, NAAMLOZE VENNOOTSCHAP, priority 2009, published 2012).

How the values were obtained:
[1] = system: Chrysanthemum cv Herby Mixed; assay: Flower bud thinning, Chrysanthemum cv Herby Mixed: auxin/auxin precursor with or without acetaminophen; type: in vivo; conditions: for Mean Number of Buds/plant: auxins/precursors each at 10^−2 Molar solutions, AC at 3 g per hectare equivalent, applied 2 Dec. 2009 (first bud), measured 12 Jan. 2010 (flowering); for % Improvement over control ie (C) minus (A) or (B)/(C × 100): reduction of buds/plant against Control (C)
Protocol: Cultural Details: plants were sown in a commercial seed compost and then “pricked out” into a professional grade all-purpose compost in 9 cm pots set out in a randomized block design. Normal daylight plus supplementary lighting to provide a minimum of 10 hours per day. Heating was given to a minimum of 60 degrees Fahrenheit during the day and 40 degrees F. at night.
Sowing Date: 5 Oct. […] Application Date: 2 Dec. […] Measurement Date: 12 Jan. […] Measurement: Number of buds per plant.
A number of auxins or auxin precursors were applied, each at 10^−2 Molar solutions. Addition of acetaminophen (AC) was at 3 g per hectare equivalent in each test.

[2] = system: Chrysanthemum cv Herby Mixed; assay: Flower bud thinning, Chrysanthemum cv Herby Mixed: agrochemically acceptable additives with AN or AN + AC; type: in vivo; conditions: for Mean Number of Buds/plant: AN 1 g, AC 3 g actives per hectare in 250 litres water, additive per ha: Glucose 150 g, Succinic acid 50 g, Ascorbic acid 50 g, Corn oil 500 g, L-arginine 30 g, applied 4 Feb. 2010 (first bud), measured 12 Mar. 2010
Protocol: Cultural Details: plants were sown in a commercial seed compost and then “pricked out” into a professional grade all-purpose compost in 9 cm pots set out in a randomized block design. Normal daylight plus supplementary lighting to provide a minimum of 10 hours per day. Heating was given to a minimum of 60 degrees Fahrenheit during the day and 40 degrees at night. Certain agrochemically acceptable additives, as examples (rates per ha provided in the Table below), were added to either anthranilic acid ([…], applied in 250 litres water per hectare, […]) or anthranilic acid plus acetaminophen (1 gram per litre and 3 gram per litre solution respectively, applied in 250 litres water per hectare, =1 g and 3 g actives total respectively per hectare).
Sowing Date: 26 Oct. 2009, in plugs. Application Date: 4 Feb. 2010 (first bud). Measurement Date: 12 Mar. 2010 (flowering). Measurement: Number of buds per plant.

Compound	Mean Number of Buds/plant [1]	% Improvement over control ie (C) minus (A) or (B)/(C × 100) [1]	Mean Number of Buds/plant [2]	% Improvement over untreated ([2]; reduction of buds/plant against Untreated)
Nc1c(O)cccc1C(=O)O [3-Hydroxyanthranilic acid]	2.5	+7.4%	–	–
CC(=O)Nc1ccc(O)cc1 [AC, N-(4-hydroxypheyl)acetamide, reference compound]	2.7	–	2.8	–
CC(N)=O [Acetamide]	2.3	+14.8%	–	–
Nc1ccccc1C(=O)[O-].[Na+] [Anthranilic Acid monosodium salt]	2.3	+14.8%	–	–
COC(=O)c1ccccc1N [Anthranilic acid methyl ester]	2.2	+18.5%	–	–
Nc1ccccc1C(=O)O [Anthranilic acid, anthranilic acid]	2.2	+18.5%	2.3	+17.8%
NC(=O)Cc1c[nH]c2ccccc12 [Indole-3-acetamide]	2.3	+14.8%	–	–
N[C@@H](Cc1c[nH]c2ccccc12)C(=O)O [L-Tryptophan]	2.4	+11.1%	–	–
NCCc1c[nH]c2ccccc12 [Tryptamine]	2.7	+0.0%	–	–
